pEC50, pIC50, pKd: −log10 of the molar value. Like-named read-outs stand apart in the source and are kept apart here.

For orientation: EC50 means the concentration that produces a half-maximal response. In general, pKd refers to the negative decadic logarithm of the Kd, by convention in mol/L. Read a low pKd as a high Kd. As usually defined, the pIC50 is −log10 of the IC50, conventionally taken in molar units.

The target in one assay is BRD2-BD1 (Homo sapiens (Human), UniProt P25440). Description: competitive TR-FRET assay, BET-BD with acetylated peptide ligand. The assay is classed as binding. The settings on record: read-out: EC50 (μM) BRD2(1). As for the experimental part: (§1) Inhibitor potency was determined using a competitive TR-FRET assay as detailed herein, measuring interaction of the respective BET-BD with an acetylated peptide ligand (Table 2).
BRD2-BD1, sequence (P25440 74-180): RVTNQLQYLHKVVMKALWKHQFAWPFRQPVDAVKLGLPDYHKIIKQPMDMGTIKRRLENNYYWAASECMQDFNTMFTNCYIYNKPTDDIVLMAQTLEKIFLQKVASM
For orientation: In TR-FRET formats the signal depends on donor and acceptor labels being close together.

A further assay addresses BRD2-BD2 (Homo sapiens (Human), UniProt P25440). Described as above. It is filed as binding. The note with it: for EC50: read-out: EC50 (μM) BRD2(2); for [2(1)/2(2)]: Table 4, ratio of EC50. As for the experimental part:
as §1

For another assay, the target named is BRDT (Homo sapiens, UniProt Q58F21). The description is as above. The assay is classed as binding. As for the experimental part:
as §1

The test system of the next assay is HDMB03 cells. Briefly: cell viability, CellTiter-Glo. The assay is classed as cell-based, human. The note with it: read-out: EC50 (μM) HDMB03. As for the experimental part: Human G3 medulloblastoma or mouse SHH medulloblastoma cells were grown as neurospheres in supplemented neurobasal medium, as previously described (Kawauchi et al., 2012.)
(§2) After 7 days of treatment, an equal volume of CellTiter-Glo reagent (G7572, Promega) was added and the luminescence signal was measured using an automated Envision plate reader (Perkin-Elmer). Luminescence data were normalized by log10 transformation prior to calculating the percent inhibition using the following equation:
(§3) 100*(negative control mean −compound value)/(negative control mean −positive control mean).
High-throughput assay data were analyzed using Robust Interpretation of Screening Experiments (RISE) application written in Pipeline Pilot (Accelrys, v. 8.5) and the R program (R Development Core Team).
Dose-response curves were calculated by regressing the median percent inhibition obtained over triplicate experiments to log 10-transformed concentrations. Non-linear regression was then performed using the R drc package with the four parameter log-logistic function (LL2.4) (Ritz and Streibig, 2009). Curves were fit under three different constraints: (1) all parameters free, (2) high response fixed to 100, (3) low response fixed to 0; and the best fit from these three nested models was selected using the anova.drc function.
(ATP-based viability assays read luminescence as a measure of living cells.)

For the next assay, the system named is Loucy. Briefly: anti-proliferative activity. The assay is classed as cell-based. The settings on record: Table 5. As for the experimental part:
as §2, §3

Another assay concerns NALM-16. Briefly: anti-proliferative activity. It is filed as cell-based. The settings on record: Table 5. As for the experimental part: as §2, §3
For a further assay, the system named is SEM cells. Description: anti-proliferative activity. The assay is classed as cell-based. The settings on record: Table 5. As for the experimental part:
as §2, §3

The test system of assay [1] is c-Myc expression in HDMB03 cells. Briefly: c-Myc expression inhibition, high content microscopy (HCM). It is filed as cell-based, human. The note with it: read-out: EC50 (μM) Myc-inhibition.
Method: 3000 human G3 medulloblastoma or 2000 mouse SHH medulloblastoma cells per well were plated into 384-well plates (6007710, Perkin Elmer) in 30 μL of supplemented neurobasal medium using a Wellmate automated dispenser (Thermo Matrix). After 24 hours, 125 nl of compound was transferred via pin tool, resulting in a final drug concentration from 2 nM to 40 μM. 72 hours after adding the drug, the plates were fixed with 4% formaldehyde for 20 min. After fixation the cells were then washed 3 times with 75 μl of PBS. The cells were then permeabilized with 0.1% Triton-X 100 for 15 minutes at 25° C. and blocked using 1% BSA in PBS for 1 hour at 25° C. The primary antibody against c-Myc Ab (#9402, Cell Signaling) at a 1:400 dilution was diluted in 1% BSA in PBS. This mixture was added to each well before incubation overnight at 4° C. Each well was then washed 3 times with PBS using a Biotek ELX405 Select plate washer, and incubated for 1 hour at 25° C. with a solution containing 1/400 goat α-rabbit-Alexa-488 (4412S, Cell Signaling) and 1 μM Hoechst 33342 to detect nuclear material (H3570, Molecular Probes). Two images were captured of each well at 10× using a GE Healthcare InCell 6000 at 405 nM to detect nuclear staining and 488 nM to detect c-Myc. All data were analyzed using the multi-target analysis algorithm of the GE InCell Analyzer Workstation software. The number of nuclear objects in each well, as well as all nuclear measurements, was determined through nuclear masks over the Hoechst staining. C-Myc staining was then measured using top-hat segmentation in the entire cell.
In a further assay the target is BRD2(1) (Homo sapiens (Human), UniProt P25440). Briefly: BROMOscan KD determination. The note with it: Table 10. It is filed as binding. From the text:
(§4) DiscoverX® can screen compounds against all ˜42 bromodomains (a service called BROMOscan) and perform follow-up KD determination. This service is considered the industrial standard for bromodomain inhibitor comparisons. […] Dots are symbolic of inhibition of the compound at this concentration; the larger the size of the dot, the greater the activity of the compound. […] Though these compounds are selective for the BET family, the selectivity within the BET family is poor. The results of a competitive binding experiment between compounds 19 (left), 41 (center), and 56 (right) (at a single concentration, 1 μM) and a control for each of the bromodomains are shown in FIG. 5.

The target of a further assay is BRD2(2) (Homo sapiens (Human), UniProt P25440). Description: BROMOscan KD determination. It is filed as binding. The note with it: for pKd: BROMOscan, Table 10.
BRD2(2), sequence (P25440 344-453): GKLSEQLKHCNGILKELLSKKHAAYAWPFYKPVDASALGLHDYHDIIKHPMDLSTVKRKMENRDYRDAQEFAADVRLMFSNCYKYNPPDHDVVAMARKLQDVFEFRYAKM
Excerpt: as §4

Another assay addresses BRDT(1) (Homo sapiens (Human), UniProt Q58F21). Briefly: BROMOscan KD determination. It is filed as binding. The settings on record: Table 10.
Excerpt: as §4

A further assay deals with BRDT(2) (Homo sapiens (Human), UniProt Q58F21). Description: BROMOscan KD determination. The note with it: for pKd: BROMOscan, Table 10. The assay is classed as binding.
Excerpt: as §4

A further assay addresses BRD3(1) (Homo sapiens (Human), UniProt Q15059). Briefly: BROMOscan KD determination. The assay is classed as binding. The note with it: Table 10. From the text: (§5) DiscoverX® can screen compounds against all ˜42 bromodomains (a service called BROMOscan) and perform follow-up KD determination. This service is considered the industrial standard for bromodomain inhibitor comparisons.

Another assay concerns the target BRD3(2) (Homo sapiens (Human), UniProt Q15059). Briefly: BROMOscan KD determination. The settings on record: for pKd: BROMOscan, Table 10. It is filed as binding.
Excerpt: as §5

The subject of the next assay is all ~42 bromodomains. Description: BROMOscan competitive binding experiment at a single concentration. The settings on record: 1 μM, FIG. 4.
Excerpt: as §4

The test system of assay [2] is c-Myc oncogene expression. The settings on record: previous study with BD2-selective BET inhibitor; cited from earlier work.
For a further assay, the target named is BRD3-BD1 (Homo sapiens (Human), UniProt Q15059). Description: competitive TR-FRET assay, BET-BD with acetylated peptide ligand. The assay is classed as binding. The note with it: Table 4; read-out: BRD3(1). As for the experimental part:
as §1

The target in a further assay is BRD4-BD1 (Homo sapiens (Human), UniProt O60885). The description is as above. It is filed as binding. The note with it: Table 4; read-out: EC50 (μM) BRD4(1). As for the experimental part:
as §1

The target of the next assay is BRD4-BD2 (Homo sapiens (Human), UniProt O60885). The description is as above. The settings on record: for 4(1)/4(2): Table 4, ratio of EC50; for EC50: Table 4, read-out: EC50 (μM) BRD4(2). The assay is classed as binding. As for the experimental part:
as §1

The next assay addresses BRD4(1) (Homo sapiens (Human), UniProt O60885). Description: BROMOscan KD determination. The settings on record: Table 10. It is filed as binding.
Excerpt: as §5

A further assay addresses BRD4(2) (Homo sapiens (Human), UniProt O60885). Briefly: BROMOscan KD determination. It is filed as binding.
Excerpt: as §5

The subject of assay [3] is neural crest tumor cell lines. Briefly: activity versus neural crest tumor cell lines. It is filed as cell-based. The note with it: several neural crest tumor cell lines; read-out: IC50 ranges.

BRD3-BD1, sequence (Q15059 34-140): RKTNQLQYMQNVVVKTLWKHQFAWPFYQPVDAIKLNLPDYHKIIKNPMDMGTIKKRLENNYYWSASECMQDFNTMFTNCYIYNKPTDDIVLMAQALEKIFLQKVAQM
BRD3(2), sequence (Q15059 306-415): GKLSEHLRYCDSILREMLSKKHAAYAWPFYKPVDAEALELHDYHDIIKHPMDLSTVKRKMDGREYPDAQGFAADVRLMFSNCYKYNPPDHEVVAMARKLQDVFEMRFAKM
BRD2-BD2, sequence (P25440 344-453): as the sequence (P25440 344-453) above
BRD3(1), sequence (Q15059 34-140): as the sequence (Q15059 34-140) above
BRD2(1), sequence (P25440 74-180): as the sequence (P25440 74-180) above

In the case of `CC(=O)N1c2ccc(-c3ccc(C(=O)O)cc3)cc2[C@H](Nc2ccc(Cl)cc2)C[C@@H]1C` [GSK-726, IBET-726, reference compound], the EC50 at BRD2-BD1 (Table 4) worked out at 1 µM; on BRD2-BD1 (Table 6) it was 1.3 µM; on BRD2-BD1 (Table 8), 1.3 µM; at BRD2-BD2 (Table 4) it was 0.057 µM; on BRD2-BD2 (Table 6), 0.19 µM; on BRD2-BD2 (Table 8) it was 0.19 µM. The EC50 is 5.77 µM with HDMB03 cells (Table 5); 0.95 µM in the assay on HDMB03 cells (Table 7); 0.95 µM in the assay on HDMB03 cells (Table 9, cancer cell proliferation inhibition); 0.33 µM with Loucy; 0.23 µM in the assay on NALM-16; 0.02 µM in the assay on SEM cells. Further, the EC50 in assay [1] (Table 5) was found to be 0.17 µM; in assay [1] (Table 7), 1.5 µM; in [1] (Table 9, c-Myc expression inhibition in HDMB03 cells), 1.5 µM. Besides, the pEC50 on BRDT (Table 4, read-out: BRDT EC50) is 5.28; at BRDT (Table 6, head names no target, BRDT by comparison with Table 4, read-out: EC50) it was 5.26; at BRDT (Table 8, head names no target, BRDT by comparison with Table 4, read-out: EC50), 5.26. In addition, the pKd at BRD2(1) is 8.33; on BRD2(2), 9.70; on BRDT(1), 8.35; at BRDT(2) it was 9.05; at BRD3(1), 8.51; at BRD3(2), 9.70. For the same compound, the “activity across bromodomain families” value in the assay with all ~42 bromodomains is “activity only versus the BET family”.
For the compound `COc1cc(OC)c2c(=O)[nH]c(-c3cc(C)c(OCCO)c(C)c3)nc2c1` [RVX-208], the c-Myc oncogene expression result in assay [2] is on record as “did not inhibit c-Myc oncogene expression”.
Consider `CC(=O)Nc1cccc(-c2ccc3c(c2)[C@H](Nc2ccc(Cl)cc2)C[C@H](C)N3C(C)=O)c1` [compound 10], for which the EC50 at BRD2-BD1 (Table 4) amounted to 2.6 µM; at BRD2-BD2 (Table 4) it was 0.08 µM; on BRD4-BD1, 3.1 µM; at BRD4-BD2, 0.21 µM; with HDMB03 cells (Homo sapiens, HD-MB03, Table 5), 1.18 µM; with NALM-16 (NALM16), 0.33 µM. Besides, the EC50 in assay [1] (Homo sapiens, HD-MB03, Table 5) worked out at 0.68 µM. Also, the “[2(1)/2(2)]” value on BRD2-BD2 was 33. Besides, the pEC50 at BRD3-BD1 is 5.72; at BRDT (Table 4, read-out: BRDT EC50) it was 5.43. Also, the “4(1)/4(2)” value at BRD4-BD2 was determined as 15.
`CC(=O)Nc1cccc(-c2ccc3c(c2)[C@H](Nc2ccccc2OC(F)(F)F)C[C@H](C)N3C(C)=O)c1` [compound 19]: the EC50 is 8.3 µM on BRD2-BD1 (Table 4); 0.16 µM at BRD2-BD2 (Table 4); 8.3 µM on BRD4-BD1; 0.14 µM on BRD4-BD2; 1.14 µM in the assay with HDMB03 cells (Homo sapiens, HD-MB03, Table 5); more than 1.7 µM in the assay with NALM-16 (NALM16). In addition, the concentration giving a half-maximal response (EC50) with SEM cells worked out at 0.04 µM; in [1] (Homo sapiens, HD-MB03, Table 5), 0.11 µM. In addition, the entries for the “[2(1)/2(2)]” value on BRD2-BD2 and at BRD2(2) (BROMOscan KD ratio) were 52 and 48.6, respectively. Further, the pEC50 at BRD3-BD1 is 5.27; on BRDT (Table 4, read-out: BRDT EC50), 5.00. Also, the results for the “4(1)/4(2)” value on BRD4-BD2 and at BRD4(2) (BROMOscan KD ratio) were 59 and 58.2, respectively. Also, the pKd on BRD2(1) is 6.77; on BRD2(2), 8.46; on BRDT(1) it was 7.14; on BRDT(2) it was 7.96; on BRD3(1), 6.96; at BRD3(2) it was 8.89. Also, the negative logarithm of the Kd (pKd) was 7.00 on BRD4(1) and 8.77 on BRD4(2) (BROMOscan, Table 10). The “T(1)/T(2)” value at BRDT(2) (BROMOscan KD ratio) amounted to 6.5. Also, the “3(1)/3(2)” value at BRD3(2) (BROMOscan KD ratio) was found to be 84.6.
For `COc1ccccc1N[C@@H]1C[C@H](C)N(C(C)=O)c2ccc(-c3cccc(NC(C)=O)c3)cc21` [compound 40], the EC50 turned out to be 4.2 µM at BRD2-BD1 (Table 4); 0.06 µM at BRD2-BD2 (Table 4); 6 µM at BRD4-BD1; 0.1 µM at BRD4-BD2; 17.6 µM in the assay with HDMB03 cells (Homo sapiens, HD-MB03, Table 5); 0.32 µM with Loucy. For the same compound, the EC50 in the assay on NALM-16 (NALM16) amounted to 0.26 µM; in the assay with SEM cells, 0.02 µM; in [1] (Homo sapiens, HD-MB03, Table 5), 0.49 µM. At BRD2-BD2, the “[2(1)/2(2)]” value turned out to be 75. Besides, the pEC50 on BRD3-BD1 is 5.70; on BRDT (Table 4, read-out: BRDT EC50), 5.04. Also, the “4(1)/4(2)” value at BRD4-BD2 was 52.9. Besides, the pIC50 in assay [3] is 6.70 to 7.30.
